# From patent US5057493A, “Novel antibiotics R106” (priority 1988, dated 1991)
# Starred links: 1 amine or outer side, 2 acyl side, 3 side chain; linkers in the order of their positions; H or OH if unused. Non-standard residues stand in square brackets, D forms with d. Residues, ends and D or L forms follow the SMILES beside them. ξ: configuration not given here. ξNMeVal(3-OH) = CNC(C(=O)O)C(C)(C)O; NMeF = CN[CH](Cc1ccccc1)C(=O)O; X1 = CCC(C)C(O[*:1])C(=O)[*:2]; NMeV = CN[CH](C(=O)O)C(C)C
# What was measured:
# Assay in all cases: MIC by agar dilution method, casitone agar
# Assay type in all cases: cell-based
# [1] = system: Candida albicans TIMM 0144; conditions: 27° C. for 4 days
# Method: (§1) The minimum inhibitory concentration (MIC) of each antibiotic against various fungi was determined by the agar dilution method using casitone agar medium (2.0% glucose, 0.9% bacto-casitone, 1.0% yeast extract, 0.1% KH2 PO4, 0.1% Na2 HPO4, 1.0% sodium citrate, 2.0% agar: concentrations are all by w/v).
# (§2) Each minimum growth inhibitory concentration was determined after culturing at 27° C. for 4 days.
# [2] = system: Candida albicans TIMM 1529; conditions: 27° C. for 4 days
# Method: as §1, §2
# [3] = system: Candida albicans TIMM 1623; conditions: 27° C. for 4 days
# Method: as §1, §2
# [4] = system: Candida albicans var. stellatoidia TIMM 1308; conditions: 27° C. for 4 days
# Method: as §1, §2
# [5] = system: Candida glabrata TIMM 1062; conditions: 27° C. for 4 days
# Method: as §1, §2
# [6] = system: Candida glabrata TIMM 1064; conditions: 27° C. for 4 days
# Method: as §1, §2
# [7] = system: Candida guilliermondii TIMM 0257; conditions: 27° C. for 4 days
# Method: as §1, §2
# Candida kefyr TIMM 0298 = conditions: 27° C. for 4 days
# Method: as §1, §2
# Candida krusei TIMM 0270 = conditions: 27° C. for 4 days
# Method: as §1, §2
# [8] = system: Candida parapsilosis TIMM 0287; conditions: 27° C. for 4 days
# Method: as §1, §2
# [9] = system: Candida tropicalis TIMM 0312; conditions: 27° C. for 4 days
# Method: as §1, §2
# [10] = system: Candida tropicalis TIMM 0315; conditions: 27° C. for 4 days
# Method: as §1, §2
# [11] = system: Cryptococcus laurentii TIMM 0352; conditions: 27° C. for 4 days
# Method: as §1, §2
# [12] = system: Cryptococcus neoformans TIMM 0354; conditions: 27° C. for 4 days
# Method: as §1, §2
# [13] = system: Cryptococcus neoformans TIMM 0355; conditions: 27° C. for 4 days
# Method: as §1, §2
# [14] = system: Cryptococcus neoformans TIMM 0363; conditions: 27° C. for 4 days
# Method: as §1, §2
# [15] = system: Cryptococcus terreus TIMM 0424; conditions: 27° C. for 4 days
# Method: as §1, §2
# [16] = system: Rhodotorula rubra TIMM 0923; conditions: 27° C. for 4 days
# Method: as §1, §2
# [17] = system: Aspergillus crustorum TIMM 1332; conditions: 27° C. for 7 days
# [18] = system: Sporothrix schenckii TIMM 0959; conditions: 27° C. for 7 days
structure (smiles),measurement,setting,value
CCC(C)C1NC(=O)C2CCCN2C(=O)C(Cc2ccccc2)N(C)C(=O)C(Cc2ccccc2)NC(=O)C(C(C)C)N(C)C(=O)C(C(C)CC)OC(=O)C(C(C)(C)O)N(C)C(=O)C(CC(C)C)NC(=O)C(C(C)C)N(C)C1=O (centres unmarked) [Compound 1] (cyclo([ξNMeVal(3-OH)][X1][NMeV]F[NMeF]PI[NMeV]L); configuration not given here),Minimum Inhibitory Concentration,[1],≤ 0.04 µg/mL
same,Minimum Inhibitory Concentration,[2],≤ 0.04 µg/mL
same,Minimum Inhibitory Concentration,[3],≤ 0.04 µg/mL
same,Minimum Inhibitory Concentration,[4],≤ 0.04 µg/mL
same,Minimum Inhibitory Concentration,[5],≤ 0.04 µg/mL
same,Minimum Inhibitory Concentration,[6],0.08 µg/mL
same,Minimum Inhibitory Concentration,[7],0.08 µg/mL
same,Minimum Inhibitory Concentration,Candida kefyr TIMM 0298,0.16 µg/mL
same,Minimum Inhibitory Concentration,Candida krusei TIMM 0270,≤ 0.04 µg/mL
same,Minimum Inhibitory Concentration,[8],0.16 µg/mL
same,Minimum Inhibitory Concentration,[9],0.08 µg/mL
same,Minimum Inhibitory Concentration,[10],0.08 µg/mL
same,Minimum Inhibitory Concentration,[11],0.31 µg/mL
same,Minimum Inhibitory Concentration,[12],0.63 µg/mL
same,Minimum Inhibitory Concentration,[13],0.31 µg/mL
same,Minimum Inhibitory Concentration,[14],1.25 µg/mL
same,Minimum Inhibitory Concentration,[15],0.31 µg/mL
same,Minimum Inhibitory Concentration,[16],0.63 µg/mL
same,Minimum Inhibitory Concentration,[17],> 80 µg/mL
same,Minimum Inhibitory Concentration,[18],> 80 µg/mL
